Experiments:
[1] = target: T1, human adenosine A2a receptor (Homo sapiens, UniProt P29274); experiment: Adenosine A2a Receptor Functional Assay (A2AGAL2); assay type: cell-based; settings: CHO-K1 cells, cAMP inducible beta-galactosidase reporter, 15 nM NECA agonist challenge
T1 construct: expressed in transfected cells; host or cells: CHO-K1
Description: Adenosine A2a Receptor Functional Assay (A2AGAL2)
To initiate the functional assay, cryopreserved CHO-K1 cells overexpressing the human adenosine A2a receptor and containing a cAMP inducible beta-galactosidase reporter gene were thawed, centrifuged, DMSO containing media removed, and then seeded with fresh culture media into clear 384-well tissue culture treated plates (BD #353961) at a concentration of 10K cells/well. Prior to assay, these plates were cultured for two days at 37° C., 5% CO2, 90% Rh. On the day of the functional assay, culture media was removed and replaced with 45 uL assay medium (Hams/F-12 Modified (Mediatech # 10-080CV) supplemented w/0.1% BSA). Test compounds were diluted and 11 point curves created at a 1000× concentration in 100% DMSO. Immediately after addition of assay media to the cell plates, 50 nL of the appropriate test compound antagonist or agonist control curves were added to cell plates using a Cartesian Hummingbird. Compound curves were allowed to incubate at room temperature on cell plates for approximately 15 minutes before addition of a 15 nM NECA (Sigma E2387) agonist challenge (5 uL volume). A control curve of NECA, a DMSO/Media control, and a single dose of Forskolin (Sigma F3917) were also included on each plate. After additions, cell plates were allowed to incubate at 37° C., 5% CO2, 90% Rh for 5.5-6 hours. After incubation, media was removed, and cell plates were washed 1×50 uL with DPBS w/o Ca & Mg (Mediatech 21-031-CV). Into dry wells, 20 uL of 1× Reporter Lysis Buffer (Promega E3971 (diluted in dH2O from 5× stock)) was added to each well and plates frozen at −20° C. overnight. For β-galactosidase enzyme calorimetric assay, plates were thawed out at room temperature and 20 μL 2× assay buffer (Promega) was added to each well. Color was allowed to develop at 37° C., 5% CO2, 90% Rh for 1-1.5 h or until reasonable signal appeared. The calorimetric reaction was stopped with the addition of 60 μL/well 1M sodium carbonate. Plates were counted at 405 nm on a SpectraMax Microplate Reader (Molecular Devices). Data was analyzed in Microsoft Excel and IC/EC50 curves were fit using a standardized macro.

[2] = target: T2, human adenosine A1 receptor (Homo sapiens, UniProt P30542); experiment: Adenosine A1 Receptor Functional Assay (A1GAL2); assay type: cell-based; settings: CHO-K1 cells, cAMP inducible beta-galactosidase reporter, 4 nM r-PIA/1 uM Forskolin challenge
T2 construct: expressed in transfected cells; host or cells: CHO-K1
T2 sequence (P30542 1-326): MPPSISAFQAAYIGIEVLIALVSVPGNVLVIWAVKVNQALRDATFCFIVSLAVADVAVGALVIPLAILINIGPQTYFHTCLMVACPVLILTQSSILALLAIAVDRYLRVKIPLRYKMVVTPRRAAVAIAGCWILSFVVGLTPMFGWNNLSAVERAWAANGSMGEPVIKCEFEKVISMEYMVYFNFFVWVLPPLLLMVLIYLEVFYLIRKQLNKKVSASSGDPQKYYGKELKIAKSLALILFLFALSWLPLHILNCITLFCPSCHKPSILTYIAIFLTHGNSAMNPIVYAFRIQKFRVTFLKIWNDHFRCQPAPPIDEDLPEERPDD
Description: Adenosine A1 Receptor Functional Assay (A1GAL2)
To initiate the functional assay, cryopreserved CHO-K1 cells overexpressing the human adenosine A1 receptor and containing a cAMP inducible beta-galactosidase reporter gene were thawed, centrifuged, DMSO containing media removed, and then seeded with fresh culture media into clear 384-well tissue culture treated plates (BD #353961) at a concentration of 10K cells/well. Prior to assay, these plates were cultured for two days at 37° C., 5% CO2, 90% Rh. On the day of the functional assay, culture media was removed and replaced with 45 uL assay medium (Hams/F-12 Modified (Mediatech # 10-080CV) supplemented w/0.1% BSA). Test compounds were diluted and 11 point curves created at a 1000× concentration in 100% DMSO. Immediately after addition of assay media to the cell plates, […] of the appropriate test compound antagonist or agonist control curves were added to cell plates using a Cartesian Hummingbird. Compound curves were allowed to incubate at room temperature on cell plates for approximately 15 minutes before addition of a 4 nM r-PIA (Sigma P4532)/1 uM Forskolin (Sigma F3917) agonist challenge (5 uL volume). A control curve of r-PIA in 1 uM Forskolin, a DMSO/Media control, and a single dose of Forskolin were also included on each plate. After additions, cell plates were allowed to incubate at 37° C., 5% CO2, 90% Rh for 5.5-6 hours. After incubation, media was removed, and cell plates were washed 1×50 uL with DPBS w/o Ca & Mg (Mediatech 21-031-CV).
Into dry wells, 20 uL of 1× Reporter Lysis Buffer (Promega E3971 (diluted in dH2O from 5× stock)) was added to each well and plates frozen at −20° C. overnight. For β-galactosidase enzyme calorimetric assay, plates were thawed out at room temperature and 20 μL 2× assay buffer (Promega) was added to each well. Color was allowed to develop at 37° C., 5% CO2, 90% Rh for 1-1.5 h or until reasonable signal appeared. The calorimetric reaction was stopped with the addition of 60 μL/well 1M sodium carbonate. Plates were counted at 405 nm on a SpectraMax Microplate Reader (Molecular Devices). Data was analyzed in Microsoft Excel and IC/EC50 curves were fit using a standardized macro.

T1 sequence (P29274 whole entry): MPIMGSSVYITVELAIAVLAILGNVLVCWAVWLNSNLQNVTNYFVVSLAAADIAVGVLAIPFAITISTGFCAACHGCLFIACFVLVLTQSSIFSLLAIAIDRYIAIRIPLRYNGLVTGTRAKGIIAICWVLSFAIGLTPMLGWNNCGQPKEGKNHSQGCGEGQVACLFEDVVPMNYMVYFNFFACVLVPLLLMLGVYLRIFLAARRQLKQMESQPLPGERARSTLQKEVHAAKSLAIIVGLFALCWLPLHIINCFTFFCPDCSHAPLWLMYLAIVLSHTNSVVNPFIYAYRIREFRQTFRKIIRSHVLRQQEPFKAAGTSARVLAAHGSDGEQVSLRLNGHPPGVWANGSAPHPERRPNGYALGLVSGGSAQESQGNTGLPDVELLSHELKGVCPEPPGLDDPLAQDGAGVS

Compound: CCc1ccc(-c2nc(N)c3cc(CN4CCOCC4)sc3n2)o1 [Example 8, 2-(5-Ethyl-furan-2-yl)-6-morpholin-4-ylmethyl-thieno[2,3-d]pyrimidin-4-ylamine]
- Ki [1]: 78.2 nM
- Ki [2]: > 610 nM

Compound: Cc1csc(-c2nc(N)c3cc(CN4[C@H](C)CCC[C@@H]4C)sc3n2)n1 [Example 9, 6-(2,6-Dimethyl-piperidin-1-ylmethyl)-2-(4-methyl-thiazol-2-yl)-thieno[2,3-d]pyrimidin-4-ylamine]
- Ki [1]: 89.4 nM
- Ki [2]: 297 nM

Compound: CC(C)c1ccc(-c2nc(N)c3cc(CN4[C@H](C)CCC[C@@H]4C)sc3n2)o1 [Example 10, 6-(2,6-Dimethyl-piperidin-1-ylmethyl)-2-(5-isopropyl-furan-2-yl)-thieno[2,3-d]pyrimidin-4-ylamine]
- Ki [1]: 17.3 nM
- Ki [2]: 144 nM

Compound: CCc1ccc(-c2nc(N)c3cc(CN4[C@H](C)CCC[C@@H]4C)sc3n2)o1 [Example 11, 6-(2,6-Dimethyl-piperidin-1-ylmethyl)-2-(5-ethyl-furan-2-yl)-thieno[2,3-d]pyrimidin-4-ylamine]
- Ki [1]: 24.9 nM
- Ki [2]: 194 nM

Compound: C[C@@H]1CCC[C@H](C)N1Cc1cc2c(N)nc(-c3ccc(C4CC4)o3)nc2s1 [Example 12, 2-(5-Cyclopropyl-furan-2-yl)-6-(2,6-dimethyl-piperidin-1-ylmethyl)-thieno[2,3-d]pyrimidin-4-ylamine]
- Ki [1]: 114 nM
- Ki [2]: 333 nM

Compound: C[C@@H]1CCC[C@H](C)N1Cc1cc2c(N)nc(-c3ccc(C(C)(C)C)s3)nc2s1 [Example 13, 2-(5-tert-Butyl-thiophen-2-yl)-6-(2,6-dimethyl-piperidin-1-ylmethyl)-thieno[2,3-d]pyrimidin-4-ylamine]
- Ki [1]: > 2340 nM
- Ki [2]: > 927 nM

Compound: CC(C)(C)c1ccc(-c2nc(N)c3cc(CN4CCOCC4)sc3n2)s1 [Example 14, 2-(5-tert-Butyl-thiophen-2-yl)-6-morpholin-4-ylmethyl-thieno[2,3-d]pyrimidin-4-ylamine]
- Ki [1]: > 2340 nM
- Ki [2]: > 927 nM

Compound: Cc1csc(-c2nc(N)c3cc(CN4CCOCC4)sc3n2)n1 [Example 15, 2-(4-Methyl-thiazol-2-yl)-6-morpholin-4-ylmethyl-thieno[2,3-d]pyrimidin-4-ylamine]
- Ki [1]: 208 nM
- Ki [2]: > 927 nM

Compound: Nc1nc(-c2ccon2)nc2sc(CN3CCOCC3)cc12 [Example 16, 2-Isoxazol-3-yl-6-morpholin-4-ylmethyl-thieno[2,3-d]pyrimidin-4-ylamine]
- Ki [1]: 1010 nM
- Ki [2]: 678 nM

Compound: C[C@@H]1CN(Cc2cc3c(N)nc(-c4cccc(C#N)c4)nc3s2)C[C@H](C)O1 [Example 17, 3-[4-Amino-6-(2,6-dimethyl-morpholin-4-ylmethyl)-thieno[2,3-d]pyrimidin-2-yl]-benzonitrile]
- Ki [1]: 150 nM
- Ki [2]: 1070 nM

Compound: C[C@@H]1CCC[C@H](C)N1Cc1cc2c(N)nc(-c3ccon3)nc2s1 [Example 18, 6-(2,6-Dimethyl-piperidin-1-ylmethyl)-2-isoxazol-3-yl-thieno[2,3-d]pyrimidin-4-ylamine]
- Ki [1]: 130 nM
- Ki [2]: 504 nM

Compound: C[C@@H]1CCC[C@H](C)N1Cc1cc2c(N)nc(-c3ccc(Br)o3)nc2s1 [Example 19, 2-(5-Bromo-furan-2-yl)-6-(2,6-dimethyl-piperidin-1-ylmethyl)-thieno[2,3-d]pyrimidin-4-ylamine]
- Ki [1]: 12 nM
- Ki [2]: 39.6 nM

Compound: N#Cc1cccc(-c2nc(N)c3cc(CN4CCCC4c4ccccc4)sc3n2)c1 (stereo not drawn) [Example 20, 3-[4-Amino-6-(2-phenyl-pyrrolidin-1-ylmethyl)-thieno[2,3-d]pyrimidin-2-yl]-benzonitrile]
- Ki [1]: 154 nM
- Ki [2]: 762 nM

Compound: CC(C)c1ccc(-c2nc(N)c3cc(CN4CCOCC4)sc3n2)o1 [Example 21, 2-(5-Isopropyl-furan-2-yl)-6-morpholin-4-ylmethyl-thieno[2,3-d]pyrimidin-4-ylamine]
- Ki [1]: > 1360 nM
- Ki [2]: > 594 nM

Compound: Nc1nc(-c2ccc(C3CC3)o2)nc2sc(CN3CCOCC3)cc12 [Example 22, 2-(5-Cyclopropyl-furan-2-yl)-6-morpholin-4-ylmethyl-thieno[2,3-d]pyrimidin-4-ylamine]
- Ki [1]: 958 nM
- Ki [2]: > 1070 nM
